Here are results for 1 compound from patent publication US11529344B2, “EZH2 inhibitor combination therapies” (Pfizer Inc., priority 2017, dated 2022).

Assay [1] concerns SLFN11 expression in SCLC cell lines. Put plainly: SLFN11 western blotting. The assay is classed as cell-based. The note with it: 500 nM for 7 days, several SCLC cell lines. How it is done:
SCLC cell lines were treated with 500 nM of Compound 1 in DMSO for 7 days and changes in SLFN11 protein levels were then assessed using western blotting. After drug treatment, cells were trypsized (adherent cells), harvested by centrifugation at 2000 rpm at room temperature, washed with PBS, followed by collection of cell pellets by centrifugation. Cell pellets were re-suspended in appropriate volume of RIPA buffer (Sigma; Catalogue #R0278; 100 ul per 5-10×10^5 cells), incubated on ice for 10-15 min, centrifuged at 12,000 g and 4° C. for 10 min and then supernatant was collected. 15 ug of total protein lysates was run on 4-12% NuPAGE™ Bis-Tris protein gel (NP0336Box) in 1×NuPAGE™ MOPS SDS Running Buffer (NP0001). Gels were run on ice at 80V for 20 minutes and then 150V for 60 minutes. […] The signal was detected using the ECL system (Thermo-34078 and -34096) and imaged on the ImageQuant LAS400 imager.
To understand the potential mechanisms responsible for EZH2i synergy observed with chemotherapy agents, we assessed the effects of Compound 1 treatment on SLFN11 expression, a sensitizer to DNA damaging agents. Several SCLC cell lines were treated with 500 nM of Compound 1 for 7 days and changes in SLFN11 protein levels were assessed using western blotting according to the methodology described above.

Assay [2] relates to EZH2 (H3K27Me3 levels) in DMS114 SCLC cells containing wild-type EZH2. Put plainly: cells. The settings on record: Homo sapiens, DMS-114, 72 h, read-out: H3K27Me3 IC50 ± SD (nM) (n).
Method: SCLC cell line DMS114 was obtained from American Type Culture Collection (American Type Culture Collection, ATCC CRL-2066) and cultured in Waymouth's Medium MB 752/1 (Gibco/Life Technologies Cat. 11220-035), plus 10% Fetal Bovine Serum (FBS) (Gibco/Life Technologies Cat. 10082-147) and 1% Pen/Strep. […] All cells were maintained in a humidified incubator at 37° C. with 5% carbon dioxide (CO2).
Cells were plated at 1500 cells per well in 96-well black, flat, clear-bottom plates (Falcon, BD-353219). The following day, compounds were added to the wells at 3-fold dilution with a final concentration range from 3 μM to 0.1 nM, leaving some cells empty for controls: “DMSO only (1st and 2nd antibody)” and “DMSO only (2nd antibody only)”. […] After 2 hours, the secondary antibody was removed, the plates were washed again 5 times in PBST for 5 minutes each and then fluorescent signal was detected on an Odyssey LiCoR instrument (focus length 3 mm; using both 800 nm (for secondary) and 700 nm filters together (for DRAQ5). IC50 values were calculated using a four-parameter fit with GraphPad Prism version 7.02 and arithmetic mean of all biological replicates was calculated.
EZH2 inhibitor activity was determined in the cells by measurement of the relative amount of cellular H3K27Me3 levels.
Assay [3] deals with H69 SCLC cells. Put plainly: Cell growth inhibition assay, H69 SCLC cells. The class given is cell-based. The note with it: Homo sapiens, NCI-H69, 504 h; H69 cell line, 21 days of treatment; read-out: inhibition of cell proliferation, mean IC50. On the procedure:
COR-L88 (92031917) cells were purchased from ECACC. […] No. 1565565).
H841, H446 and H69 cells were plated in their recommended complete culture medium described above (1 mL/well) in triplicate 12 well plates for each cell line at a density of 100,000 cells per well. Plates were incubated overnight at 37° C. and 5% CO2. Compound 1 stock was prepared at 50 mM in DMSO and was dispensed to several single-use aliquots and stored at −20° C. To prepare the compound plate, Compound 1 was diluted to 3 mM in DMSO and then 3-fold serial dilution were made in DMSO (10 doses in total). […] On Day 21, cell morphology was observed under microscope and any morphology changes upon compound treatment were recorded. […] Cell viability was measured using according to manufacturer's instructions.
Based on the strong activity observed with Compound 1 in DMS114 cells (see example 1 above), the antiproliferative activity of Compound 1 was also tested in 3 additional SCLC cell lines, namely H841, H446 and H69 using the cell proliferation assay described above. Each cell line was treated with different concentrations of Compound 1 using a 10-point dose curve (1:3 dilution in DMSO) with 3 μM to 0.1 nM for 21 days and then assessed for cell viability. […]

With `COc1cc(C)[nH]c(=O)c1CN1CCc2c(Cl)cc([C@H](OC)C3COC3)c(Cl)c2C1=O` [Compound 1, 5,8-dichloro-2-[(4-methoxy-6-methyl-2-oxo-1,2-dihydro-pyridin-3-yl)methyl]-7-[(R)-methoxy(oxetan-3-yl)methyl]-3,4-dihydroisoquinolin-1(2H)-one], in assay [1], the SLFN11 protein expression entry was “strong induction of SLFN11 expression”. Besides, the IC50 in assay [2] is 9.48 nM; in assay [3], 224 nM.
